In patent US5840699A, “Peptide derivatives” (Teikoku Hormone Mfg. Co. Ltd., priority 1995, dated 1998):

Tested on: mouse leukemia P388 cells
Assay: Antitumor activity (increase in life-span) in mice transplanted with mouse leukemia P388 cells
Type: in vivo
Conditions: relative value of percent increase in life-span (ILS), dolastatin 10 ILS regarded as 1; P388 cells (10^6 per mouse) in abdominal cavity of CDF1 mice; drug intraperitoneally on first and fifth day; observed for 60 days
Procedure: 0.1 ml (10^6 cells per mouse) each of mouse leukemia P388 cells was transplanted into the abdominal cavity of 7-weeks-old CDF1 mice. […] Then, the percent increase in life-span (ILS) was calculated from the results of observation according to the following equation. In the following equation, T designates the median number of days for which the mice of the drug-treated group survived, and C designates the median number of days for which the mice of the control group survived. [formula]
The antitumor activity of each drug is expressed as a relative value based on the antitumor activity of dolastatin 10 for which ILS is regarded as 1.

dolastatin 10
Antitumor activity: 1
